Assay results reported in patent US20220331414A1, “LIPID COMPOUNDS AND LIPID NANOPARTICLE COMPOSITIONS” (Suzhou Abogen Biosciences Co., Ltd., priority 2020, published 2022).

How the values were obtained:
[1] = Lipid nanoparticle size and polydispersity by dynamic light scattering; assay type: physicochemical; details: LNP of cationic lipid/DSPC/cholesterol/PEG-lipid 50:10:38.5:1.5 with mRNA
Description: (§1) Briefly, a cationic lipid provided herein, DSPC, cholesterol, and PEG-lipid were solubilized in ethanol at a molar ratio of 50:10:38.5:1.5, and mRNA were diluted in 10 to 50 mM citrate buffer, pH=4. The LNPs were prepared at a total lipid to mRNA weight ratio of approximately 10:1 to 30:1 by mixing the ethanolic lipid solution with the aqueous mRNA solution at a volume ratio of 1:3 using a microfluidic apparatus, total flow rate ranging from 9-30 mL/min. Ethanol were thereby removed and replaced by DPBS using dialysis. Finally, the lipid nanoparticles were filtered through a 0.2 μm sterile filter.
(§2) Lipid nanoparticle size were determined by dynamic light scattering using a Malvern Zetasizer Nano ZS (Malvern UK) using a 173° backscatter detection mode. The encapsulation efficiency of lipid nanoparticles were determined using a Quant-it Ribogreen RNA quantification assay kit (Thermo Fisher Scientific, UK) according to the manufacturer's instructions.

[2] = Encapsulation efficiency of lipid nanoparticles (Quant-it Ribogreen RNA assay); assay type: physicochemical; details: LNP of cationic lipid/DSPC/cholesterol/PEG-lipid 50:10:38.5:1.5 with mRNA
Description: as §1, §2

[3] = Apparent pKa of LNP formulations by TNS fluorescence assay; details: LNP cationic lipid/DSPC/cholesterol/DMG-PEG 50/10/38.5/1.5 mol %, pH 3 to 9
Description: TNS was prepared as a 300 uM stock solution in distilled water. LNP formulations were diluted to 0.1 mg/ml total lipid in 3 mL of buffered solutions containing 50 mM sodium citrate, 50 mM sodium phosphate, 50 mM sodium borate, and 30 mM sodium chloride where the pH ranged from 3 to 9. An aliquot of the TNS solution was added to give a final concentration of 0.1 mg/ml and following vortex mixing fluorescence intensity was measured at room temperature in a Molecular Devices Spectramax iD3 spectrometer using excitation and mission wavelengths of 325 nm and 435 nm. A sigmoidal best fit analysis was applied to the fluorescence data and the pKa value was measured as the pH giving rise to half—maximal fluorescent intensity.

| Structure (SMILES) | polydispersity [1] | size (nm) [1] [nm] | Encapsulation Efficiency [2] [%] | Apparant Pka [3] |
| --- | --- | --- | --- | --- |
| CCCCCCCCC(CCCCCC)COP(=O)(NCCN1CCCCC1)OCC(CCCCCC)CCCCCCCC (centres unmarked) [Compound 26] | 0.27 | 68.19 | 93.6 | 4.99 |
| CCCCCCCCC(CCCCCC)COP(=O)(NCCN(C)CCO)OCC(CCCCCC)CCCCCCCC (centres unmarked) [Compound 46] | 0.114 | 54.72 | 99.0 | 6.85 |
| CCCCCCCCC(CCCCC)COP(=O)(NCCN1CCCC1)OCC(CCCCC)CCCCCCCC (centres unmarked) [Compound 74] | 0.162 | 66.97 | 96.9 | 6.381 |

Further lines, results first:

| polydispersity [1] | size (nm) [1] [nm] | Encapsulation Efficiency [2] [%] | Apparant Pka [3] | Structure (SMILES) |
| --- | --- | --- | --- | --- |
| 0.023 | 138.2 | 92.1 | 6.603 | CCCCCCCCC(CCCC)COP(=O)(NCCN(CC)CC)OCC(CCCC)CCCCCCCC (centres unmarked) [Compound 75] |
| 0.196 | 78.22 | 91.0 | 5.325 | CCCCCCCCC(CCCCCC)COP(=O)(NCCN(CCO)C1CCC1)OCC(CCCCCC)CCCCCCCC (centres unmarked) [Compound 57] |
| 0.242 | 56.48 | 85.7 | 5.526 | CCCCCCCCC(CCCCCCCC)COP(=O)(NCCN(CC)CC)OCC(CCCCCC)CCCCCC (centres unmarked) [Compound 90] |
| 0.329 | 90.86 | 95.1 | 5.679 | CCCCCCCCC(CCCCCC)COP(=O)(NCCN(CCC)CCO)OCC(CCCCCC)CCCCCCCC (centres unmarked) [Compound 53] |
| 0.181 | 116.8 | 98.5 | 9.07 | CCCCCCCCCOC(=O)CCCCCOP(=O)(NCCCCN(C)C)OCCCCCC(=O)OCCCCCCCCC [Compound 2] |
